Source: patent US11439633B2, “Tetrahydroquinoline derivatives as P2X7 receptor antagonists” (RaQualia Pharma Inc., priority 2017, dated 2022)

Experiments:
human P2X7 = human P2X7 (Homo sapiens (Human), UniProt Q99572); experiment: Human P2X7 functional assay (Ca2+ influx, Fluo-4, FDSS, BzATP activation); type: cell-based; conditions: antagonistic activity with respect to the human P2X7 receptor; BzATP final concentration 80 microM; 7-point dose-response
Description: Human P2X7 Functional Assay
(§1) The functional activity of compounds was determined by measuring changes in intracellular calcium concentration using a Ca^2+-sensitive fluorescent dye, Fluo-4 (Molecular Probes). The changes in fluorescent signal were monitored by the cell imaging technology by Hamamatsu Photonics's Functional Drug Screening System (FDSS). Increases in intracellular Ca^2+ concentration were readily detected upon activation with BzATP.
(§2) HEK293 cells stably expressing human P2X7 (GenBank accession number BC011913) carrying a C-terminal FLAG tag were grown in T225 flasks, in a 5% CO2 humidified incubator to about 80% confluence. Media composition consisted of Dulbecco's Modified Eagle Medium (high glucose), 10% fetal bovine serum ([…]), 100 units/microM Penicillin, 100 microg/mL Streptomycin and 250 microg/mL Geneticine.
1. Plate-out HEK293-human P2X7 cells (40 microL medium containing 10,000 cells per well) into poly-D-lysine coated 384-well plates (Corning) at 24 h prior to assay.
2. Incubate at 37° C. in 5% CO2.
3. Incubate the plate at 37° C. in 5% CO2 for 1 h.
5. Test compounds were prepared at 100× the test concentration in DMSO by serial dilution with Biomek-FX liquid handling instrument. 33× diluted compound solutions in assay buffer were prepared in intermediate compound plate with Biomek-NX liquid handling instrument. A further 3× dilution occurred in below steps 6 and 7.
6. Add 20 microL of 33× diluted compound solutions into each well and leave the plate for 10 min under the dark at room temperature.
7. Measure activity by FDSS as follows: • Set the assay plate on the stacker of FDSS. • Start the detection of fluorescence intensity at 540 nm by 480 nm exicitation. • After 30 seconds, add 20 microL of assay buffer containing 240 microM BzATP (final concentration 80 microM).
IC50 values for compounds of the present invention were determined from 7-point dose-response studies. Curves were generated using the average of duplicate wells for each data point. Finally, the IC50 values are calculated with the best-fit dose curve determined by XLfit (ID Business Solutions Ltd.).

rat P2X7 = rat P2X7 (Rattus norvegicus (Rat), UniProt Q64663); experiment: Rat P2X7 functional assay (Ca2+ influx, Fluo-4, FDSS, BzATP activation); type: cell-based; conditions: HEK293 cells stably expressing rat P2X7; BzATP final 10 microM; read-out: Antagonistic activities with respect to the rat P2X7 receptor (IC50)
Chain of rat P2X7 (Q64663 whole entry): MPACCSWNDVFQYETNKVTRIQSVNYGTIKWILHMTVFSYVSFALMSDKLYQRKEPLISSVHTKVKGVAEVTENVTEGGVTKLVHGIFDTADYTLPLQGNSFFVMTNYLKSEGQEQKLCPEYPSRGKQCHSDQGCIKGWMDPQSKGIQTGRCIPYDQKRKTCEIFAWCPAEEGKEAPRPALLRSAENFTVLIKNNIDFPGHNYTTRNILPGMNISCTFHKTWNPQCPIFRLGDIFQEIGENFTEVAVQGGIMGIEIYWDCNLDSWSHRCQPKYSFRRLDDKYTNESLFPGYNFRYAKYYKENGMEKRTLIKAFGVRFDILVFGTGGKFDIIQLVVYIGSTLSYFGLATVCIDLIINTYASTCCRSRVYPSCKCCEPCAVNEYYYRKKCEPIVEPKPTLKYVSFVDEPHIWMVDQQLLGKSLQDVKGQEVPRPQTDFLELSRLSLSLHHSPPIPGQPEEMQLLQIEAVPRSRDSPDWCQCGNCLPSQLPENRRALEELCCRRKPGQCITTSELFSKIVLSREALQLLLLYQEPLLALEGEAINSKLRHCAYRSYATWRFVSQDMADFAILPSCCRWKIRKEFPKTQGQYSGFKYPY
Description: Rat P2X7 Functional Assay
as §1
as §2, with “rat” for “human”, “NM_019256)” for “BC011913) carrying a C-terminal FLAG tag”, “Corning CellBIND cell culture” for “T225”, “units/[…]” for “units/microM”
1. […]
7. Measure activity by FDSS as follows: • Set the assay plate on the stacker of FDSS. • Start the detection of fluorescence intensity at 540 nm by 480 nm exicitation. • After 30 seconds, add 20 microL of assay buffer containing 30 microM BzATP (final 10 microM).
IC50 values for compounds of the present invention were determined from 7-point dose-response studies. […] Finally, the IC50 values are calculated with the best-fit dose curve determined by XLfit (ID Business Solutions Ltd.).

Chain of human P2X7 (Q99572 whole entry): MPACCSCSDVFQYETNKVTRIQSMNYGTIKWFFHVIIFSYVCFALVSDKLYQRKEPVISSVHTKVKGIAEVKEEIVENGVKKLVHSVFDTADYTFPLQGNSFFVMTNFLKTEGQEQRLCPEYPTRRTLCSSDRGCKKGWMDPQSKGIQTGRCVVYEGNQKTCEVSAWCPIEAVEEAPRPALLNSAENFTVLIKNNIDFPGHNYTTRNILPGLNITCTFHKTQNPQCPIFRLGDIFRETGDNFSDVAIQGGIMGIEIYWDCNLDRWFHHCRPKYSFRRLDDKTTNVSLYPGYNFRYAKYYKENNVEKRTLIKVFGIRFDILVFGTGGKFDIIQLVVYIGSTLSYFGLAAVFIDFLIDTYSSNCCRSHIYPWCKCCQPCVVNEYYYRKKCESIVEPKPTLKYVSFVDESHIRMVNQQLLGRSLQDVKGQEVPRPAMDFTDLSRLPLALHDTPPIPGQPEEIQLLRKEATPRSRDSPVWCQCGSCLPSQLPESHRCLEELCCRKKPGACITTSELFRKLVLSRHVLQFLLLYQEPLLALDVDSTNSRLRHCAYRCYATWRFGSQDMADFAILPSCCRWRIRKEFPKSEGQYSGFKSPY

IC50 (human P2X7) [nM] | IC50 (rat P2X7) [nM] | Structure (SMILES)
< 50 |  | C[C@]1(O)CC[C@@](F)(C(=O)NCc2c(F)cc(Cl)cc2Cl)c2cccnc21 [Example 265, (5S,8S)-N-(2,4-dichloro-6-fluorobenzyl)-5-fluoro-8-hydroxy-8-methyl-5,6,7,8-tetrahydroquinoline-5-carboxamide]
< 50 |  | Cc1cc(Cl)cc(Cl)c1CNC(=O)[C@]1(F)CC[C@H](O)c2ncccc21 [Example 127, (5S,8S)-N-(2,4-dichloro-6-methylbenzyl)-5-fluoro-8-hydroxy-5,6,7,8-tetrahydroquinoline-5-carboxamide]
< 50 |  | O=C(NCc1c(F)cccc1C(F)(F)F)[C@]1(F)CC[C@H](O)c2ncccc21 [Example 186, (5S,8S)-5-fluoro-N-(2-fluoro-6-(trifluoromethyl)benzyl)-8-hydroxy-5,6,7,8-tetrahydroquinoline-5-carboxamide]
< 50 |  | CO[C@H]1CC[C@@](F)(C(=O)NCc2c(F)cc(Cl)cc2Cl)c2cccnc21 [Example 335, (5S,8S)-N-(2,4-dichloro-6-fluorobenzyl)-5-fluoro-8-methoxy-5,6,7,8-tetrahydroquinoline-5-carboxamide]
< 50 |  | C[C@]1(O)CC[C@@](F)(C(=O)NCc2ccc(Cl)c(F)c2F)c2cccnc21 [Example 267, (5S,8S)-N-(4-chloro-2,3-difluorobenzyl)-5-fluoro-8-hydroxy-8-methyl-5,6,7,8-tetrahydroquinoline-5-carboxamide]
< 50 |  | Cc1cccc(Cl)c1CNC(=O)[C@]1(F)CC[C@H](O)c2ncccc21 [Example 161, (5S,8S)-N-(2-chloro-6-methylbenzyl)-5-fluoro-8-hydroxy-5,6,7,8-tetra-hydroquinoline-5-carbox-amide]
< 50 |  | O=C(NCc1c(Cl)cc(Cl)cc1CO)C1CCC(O)c2ncccc21 (stereo not drawn) [Example 9, N-(2,4-dichloro-6-(hydroxymethyl)benzyl)-8-hydroxy-5,6,7,8-tetrahydroquinoline-5-carboxamide]
< 50 |  | Cc1cc(Cl)cc(Cl)c1CNC(=O)[C@@]1(F)CC[C@@H](O)c2ncccc21 [Example 126, (5R,8R)-N-(2,4-dichloro-6-methylbenzyl)-5-fluoro-8-hydroxy-5,6,7,8-tetrahydroquinoline-5-carboxamide]
< 50 |  | C[C@]1(O)CC[C@@](F)(C(=O)NCc2c(F)cc(F)cc2Cl)c2cccnc21 [Example 266, (5S,8S)-N-(2-chloro-4,6-difluorobenzyl)-5-fluoro-8-hydroxy-8-methyl-5,6,7,8-tetrahydroquinoline-5-carboxamide]
< 50 |  | O=C(NCc1cccc(C(F)(F)F)c1F)[C@]1(F)CC[C@H](O)c2ncccc21 [Example 175, (5S,8S)-5-fluoro-N-(2-fluoro-3-(trifluoromethyl)benzyl)-8-hydroxy-5,6,7,8-tetrahydroquinoline-5-carboxamide]
< 50 |  | O=C(NCc1cc(Br)ccc1Cl)[C@]1(F)CC[C@H](O)c2ncccc21 [Example 181, (5S,8S)-N-(5-bromo-2-chlorobenzyl)-5-fluoro-8-hydroxy-5,6,7,8-tetra-hydroquinoline-5-carbox-amide]
< 50 |  | O=C(NCc1ccc(F)cc1C(F)(F)F)[C@]1(F)CC[C@H](O)c2ncccc21 [Example 144, (5S,8S)-5-fluoro-N-(4-fluoro-2-(trifluoromethyl)benzyl)-8-hydroxy-5,6,7,8-tetrahydroquinoline-5-carboxamide]
< 50 |  | O=C(NCc1c(F)cc(Cl)cc1Cl)[C@]1(F)CC[C@H](O)c2ncccc21 [Example 152, (5S,8S)-N-(2,4-dichloro-6-fluorobenzyl)-5-fluoro-8-hydroxy-5,6,7,8-tetrahydroquinoline-5-carboxamide]
< 50 |  | C[C@]1(O)CC[C@@](F)(C(=O)NC2CC2c2ccc(Cl)cc2Cl)c2cccnc21 (stereo partly drawn) [Example 273, (5S,8S)-N-((trans)-2-(2,4-dichlorophenyl)cyclopropyl)-5-fluoro-8-hydroxy-8-methyl-5,6,7,8-tetrahydro-quinoline-5-carboxamide]
< 50 |  | CS(=O)(=O)C1CC[C@@](F)(C(=O)NCc2ccc(Cl)cc2Cl)c2cccnc21 (stereo partly drawn) [Example 350, (5S)-N-(2,4-dichlorobenzyl)-5-fluoro-8-(methylsulfonyl)-5,6,7,8-tetrahydroquinoline-5-carboxamide]
< 50 |  | O=C(NCCc1ccc(Cl)cc1Cl)[C@]1(F)CC[C@H](O)c2ncccc21 [Example 191, (5S,8S)-N-(2,4-dichloro-phenethyl)-5-fluoro-8-hydroxy-5,6,7,8-tetrahydro-quinoline-5-carboxamide]
< 50 |  | O=C(NCc1ccc(F)c(F)c1Cl)[C@]1(F)CC[C@H](O)c2ncccc21 [Example 174, (5S,8S)-N-(2-chloro-3,4-difluorobenzyl)-5-fluoro-8-hydroxy-5,6,7,8-tetra-hydroquinoline-5-carboxamide]
 | < 1000 | Cc1cc(Cl)cc(Cl)c1CNC(=O)[C@@H]1CC[C@H](O)c2ncccc21 [Example 64, (5R,8S)-N-(2,4-dichloro-6-methylbenzyl)-8-hydroxy-5,6,7,8-tetrahydroquinoline-5-carboxamide]
